“And” between values parts separate entries of the source, which are not always exact repeats. Identical values can stand only once. Inconclusive results and toxic doses are left out.
System: P388 leukemia ip, CD2F1 mice, survival T/C
Assay: NCI In Vivo Anticancer Drug Screen. Data for tumor model P388 Leukemia (intraperitoneal) in CD2F1 (CDF1) mice
Settings: endpoint: median survival time, higher = longer survival
Method in brief: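 Mice carrying the transplanted tumor received test compound or vehicle. Survival was recorded in each group, and the value is the treated-group measurement divided by that of the vehicle-treated control group.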

[1] = dose: 50.0 mg/kg/injection, schedule: Q01DX005 (ip), vehicle: saline with Tween-80
[2] = dose: 100.0 mg/kg/injection, schedule: Q01DX005 (ip), vehicle: saline with Tween-80
[3] = dose: 200.0 mg/kg/injection, schedule: Q01DX005 (ip), vehicle: saline with Tween-80
[4] = dose: 60.0 mg/kg/injection, schedule: Q01DX005 (ip), vehicle: saline with Tween-80
[5] = dose: 120.0 mg/kg/injection, schedule: Q01DX005 (ip), vehicle: saline with Tween-80
[6] = dose: 240.0 mg/kg/injection, schedule: Q01DX005 (ip), vehicle: saline with Tween-80

[Cl][Pt+2][Cl].[NH-]C1CCCC1.[NH-]C1CCCC1
T/C (dose: 20.0 mg/kg/injection, schedule: Q01DX009 (ip), vehicle: Klucel (hydroxypropylcellulose) (HPC)): 156 % of control and 169 % of control
T/C (dose: 40.0 mg/kg/injection, schedule: Q01DX009 (ip), vehicle: Klucel (hydroxypropylcellulose) (HPC)): 156 % of control and 168 % of control and 175 % of control
T/C (dose: 80.0 mg/kg/injection, schedule: Q01DX009 (ip), vehicle: Klucel (hydroxypropylcellulose) (HPC)): 179 % of control and 193 % of control and 220 % of control
T/C (dose: 160.0 mg/kg/injection, schedule: Q01DX009 (ip), vehicle: Klucel (hydroxypropylcellulose) (HPC)): 182 % of control and 233 % of control
T/C (dose: 320.0 mg/kg/injection, schedule: Q01DX009 (ip), vehicle: Klucel (hydroxypropylcellulose) (HPC)): 110 % of control and 186 % of control and 229 % of control

O=c1cc(-c2ccccc2)c(N=Nc2ccccc2)c(S)n1-c1ccccc1
T/C [1]: 87 % of control
T/C [2]: 88 % of control
T/C [3]: 90 % of control

CN1C(=O)C(C)(C)CN(c2ccccc2)C1=S
T/C [1]: 100 % of control
T/C [2]: 108 % of control
T/C [3]: 103 % of control

C/C=C/C1OC(OC)(OC)C1(OC)OC (configuration not stated)
T/C (dose: 60.0 mg/kg/injection, schedule: Q01DX005 (ip), vehicle: saline): 100 % of control
T/C (dose: 120.0 mg/kg/injection, schedule: Q01DX005 (ip), vehicle: saline): 100 % of control
T/C (dose: 240.0 mg/kg/injection, schedule: Q01DX005 (ip), vehicle: saline): 100 % of control

Cc1ccc(C(=O)Nc2ccc(S(=O)(=O)O)c3cc(S(=O)(=O)O)cc(S(=O)(=O)O)c23)cc1NC(=O)c1cccc(NC(=O)Nc2cccc(C(=O)Nc3cc(C(=O)Nc4ccc(S(=O)(=O)O)c5cc(S(=O)(=O)O)cc(S(=O)(=O)O)c45)ccc3C)c2)c1
T/C (dose: 25.0 mg/kg/injection, schedule: Q01DX005 (ip), vehicle: saline): 106 % of control
T/C (dose: 50.0 mg/kg/injection, schedule: Q01DX005 (ip), vehicle: saline): 95 % of control

CS(=O)CCC1C(=O)OC(C(C)(C)C)N1C(=O)c1ccccc1 (configuration not stated)
T/C [4]: 101 % of control
T/C [5]: 100 % of control
T/C [6]: 105 % of control

CCCC1=CC(C)(C)CC(C)=C1 (tested in a mixture with another compound)
T/C (dose: 50.0 mg/kg/injection, schedule: Q01DX009 (ip), vehicle: saline sonified): 95 % of control
T/C (dose: 100.0 mg/kg/injection, schedule: Q01DX009 (ip), vehicle: saline sonified): 95 % of control
T/C (dose: 200.0 mg/kg/injection, schedule: Q01DX009 (ip), vehicle: saline sonified): 90 % of control

CCOC(=O)c1nc2ccccc2c(=O)n1NC(=S)Nc1ccc(Cl)cc1
T/C [1]: 93 % of control
T/C [2]: 93 % of control
T/C [3]: 105 % of control

CCC[CH2][Sn]([CH2]CCC)([CH2]CCC)[CH2]CC[N+](C)(CCO)CCO.CS(=O)(=O)[O-]
T/C (dose: 3.12 mg/kg/injection, schedule: Q01DX009 (ip), vehicle: saline): 87 % of control
T/C (dose: 6.25 mg/kg/injection, schedule: Q01DX009 (ip), vehicle: saline): 91 % of control
T/C (dose: 12.5 mg/kg/injection, schedule: Q01DX009 (ip), vehicle: saline): 97 % of control
T/C (dose: 50.0 mg/kg/injection, schedule: Q01DX009 (ip), vehicle: saline): 86 % of control
T/C (dose: 100.0 mg/kg/injection, schedule: Q01DX009 (ip), vehicle: saline): 95 % of control
T/C (dose: 200.0 mg/kg/injection, schedule: Q01DX009 (ip), vehicle: saline): 98 % of control

CCCCCCC(=O)/C=C/c1ccccc1OCOC
T/C (dose: 50.0 mg/kg/injection, schedule: Q01DX009 (ip), vehicle: Klucel (hydroxypropylcellulose) (HPC)): 100 % of control (2×) and 108 % of control
T/C (dose: 100.0 mg/kg/injection, schedule: Q01DX009 (ip), vehicle: Klucel (hydroxypropylcellulose) (HPC)): 99 % of control and 100 % of control and 106 % of control
T/C (dose: 200.0 mg/kg/injection, schedule: Q01DX009 (ip), vehicle: Klucel (hydroxypropylcellulose) (HPC)): 103 % of control and 111 % of control
T/C (dose: 400.0 mg/kg/injection, schedule: Q01DX009 (ip), vehicle: Klucel (hydroxypropylcellulose) (HPC)): 117 % of control

C1SSCC2=C1CSSC2
T/C [4]: 100 % of control
T/C [5]: 100 % of control
T/C [6]: 107 % of control

COc1cc(O)ccc1C(=S)SC
T/C (dose: 100.0 mg/kg/injection, schedule: Q04DX003 (ip), vehicle: saline with Tween-80): 106 % of control
T/C (dose: 200.0 mg/kg/injection, schedule: Q04DX003 (ip), vehicle: saline with Tween-80): 99 % of control

COc1ccc2c(c1)[C@@]13CCCC[C@H]1[C@@H](C2)N(C)CC3(C)O (some centres not stated)
T/C (dose: 100.0 mg/kg/injection, schedule: Q04DX002 (ip), vehicle: Klucel (hydroxypropylcellulose) (HPC)): 97 % of control
T/C (dose: 200.0 mg/kg/injection, schedule: Q04DX002 (ip), vehicle: Klucel (hydroxypropylcellulose) (HPC)): 105 % of control

Source: PubChem BioAssay AID330 (DTP/NCI, 2004)
